As usually defined, the IC50 is the point on the concentration scale where inhibition reaches its midpoint.

Results on two molecules are retold here after patent US20100240746A1, “STEREOISOMERS OF TRICYCLODECAN-9-YL-XANTHOGENATE” (LUMAVITA AG, priority 2007, published 2010).

Values after ≈ are worked out from the molar mass of the structure shown. Where two headings read alike, the source gives them in different places.

Data set [1] has as its system phosphatidylcholine-specific phospholipase C (PC-PLC). The settings on record: Amtmann 1996; Muller-Decker 1989; cited from earlier work.
The test system of data set [2] is bovine papilloma virus type I (BPV-1)-transformed HEF (HEF-BPV). Nature of the data set: Inhibition of bovine papilloma virus, BPV-infected hamster embryo fibroblasts (HEF) cell proliferation assay. The format is cell-based. The settings on record: Bos taurus papillomavirus 1; HEF-BPV, 72 hr, 37° C., pH 6.8; read-out: IC50. The method, then:
(§1) Briefly, hamster embryo fibroblasts and bovine papilloma virus type I (BPV-1)-transformed HEF (HEF-BPV) were grown in Eagle's basal medium. […] and HEF cells were seeded in 96-well plates at a density of 0.5×10^6 cells per plate in DMEM cell culture medium containing 10% fetal calf serum at pH 6.8. The plates were then incubated in the presence of 5% CO2 in 100% humidity at 37° C. After 6 hr, the cell culture medium in the plates was exchanged with fresh DMEM cell culture medium containing test compounds at a series of concentrations. The plates were incubated at 37° C. for additional 72 hr. Cells in the plates were then washed with PBS, fixed with 3% formaldehyde solution containing 0.9% NaCl for 1 min, washed by water for 10 sec, and dried overnight. For detection, the plates were stained with crystal violet solution for 5 min at room temperature, washed 5 times with water, and dried at room temperature overnight. After adding ethanol/acetic acid (99:1, v/v, […]) to each well, the plates were measured at 595 nm using an ELISA reader.

In a further data set the test system is Calu-6 cells. Nature of the data set: Cytotoxicity assay in Calu-6 cells (crystal violet). The settings on record: 48 hr. The format is cell-based. The protocol:
(§2) Calu-6 cells and RITA cells were grown in DMEM cell culture medium containing 10% fetal calf serum in CO2 incubator under 5% CO2 at 37° C. with 100% humidity.
(§3) For cytotoxicity assay, Calu-6 cells were seeded in 96 well plates at a density of 3×10^6 cells per plate in the DMEM cell culture medium. The plates were incubated at 37° C. in the presence of 5% CO2 for 24 hr. The DMEM cell culture medium in the plates was exchanged with fresh DMEM cell culture medium containing test compounds at a series of concentrations. The plates were incubated at 37° C. in the presence of 5% CO2 for 48 hr. The plates were then washed with PBS, fixed with 3% formaldehyde solution containing 0.9% NaCl for 1 min, washed by water for 10 sec, and dried overnight. For detection, the plates were stained with crystal violet solution for 5 min at room temperature, washed 5 times with water, and dried at room temperature overnight. After adding ethanol/acetic acid (99:1, v/v, […]) to each well, the plates were measured at 595 nm using an ELISA reader. A dose response curve was obtained for each compound tested by plotting the mean values of the optical densities against compound concentration.

Data set [3] can be described thus: Cytotoxicity assay in Calu-6 cells. Format: cell-based. The settings on record: human, 37° C., read-out: LD50. The method, then:
as §2, §3

For data set [4], the target named is T1, B. cereus PC-PLC (phosphatidylcholine-specific phospholipase C) (Bacillus cereus, UniProt P09598).
T1 construct: purchased Invitrogen
T1 sequence (P09598 39-283 limits assumed): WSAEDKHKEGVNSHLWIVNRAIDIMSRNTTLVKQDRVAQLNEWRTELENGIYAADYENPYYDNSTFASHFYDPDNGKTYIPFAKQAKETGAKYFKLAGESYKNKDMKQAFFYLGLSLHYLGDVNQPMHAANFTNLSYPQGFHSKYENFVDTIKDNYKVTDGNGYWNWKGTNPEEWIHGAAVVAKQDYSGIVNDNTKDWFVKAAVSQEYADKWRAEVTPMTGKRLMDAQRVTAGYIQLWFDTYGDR
The data set can be described thus: Inhibition of phosphatidylcholine-specific phospholipase C (Amplex Red PC-PLC assay kit). The format is biochemical. The protocol:
(§4) The inhibitory activities of optically active potassium salts of (+)- and (−)-O-exo/C-exo-tricyclo [5.2.1.0^2,6]-dec-9-yl-xanthic acid 1A ((+)- and (−)-enantiomers 1A) against phosphatidylcholine-specific phospholipase C were evaluated, together with D609 and potassium salt of racemic O-exo/C-exo xanthic acid 1A (racemic 1A), using Amplex Red phosphatidylcholine-specific phospholipase C(PC-PLC) assay kit, which was obtained from Invitrogen (Calsbad, Calif.). D609 was obtained from Sigma Aldrich.
(§5) An Amplex Red stock solution (˜20 mM), a working reaction buffer, and a horseradish peroxidase stock solution (200 U/mL), a H2O2 working solution (20 mM), a choline oxidate stock solution (20 U/mL), an alkaline phosphatase stock solution (400 U/mL), and a B. cereus PC-PLC stock solution (10 U/mL) were prepared according to the instruction of the assay kit. The stock solution (100 mg/mL) for each test compound was also prepared by dissolving the compound in water 2 hr prior to the start of the experiment.
(§6) A working Amplex Red/HRP/lecithin solution was prepared by adding 200 μL of Amplex Red reagent stock solution, 100 μL of HRP stock solution, 200 μL of alkaline phosphatase stock solution, 100 μL of choline oxidase stock solution, and 78 μL of the lecithin solution to […] of the working reaction buffer. PC-PLC solution (0.2 U/mL) was prepared by diluting the PC-PLC stock solution with the working reaction buffer to the desired concentration.
The test compound (25 μL) at a serious of concentrations was pipetted into a 96 well plate. For uninhibited PC-PLC controls and non-PC-PLC controls, 25 μL of water was added. After the addition of 50 μL of the Amplex Red/HRP/lecithin working solution, the reaction was initiated by adding 25 μL of PC-PLC solution to each well. […] After incubated for 30 min at 37° C., the reactions were measured with a fluorescence microplate reader using excitation at 550 nm and emission detection at 590 nm. The fluorescent data obtained were corrected for background fluorescence by subtracting the values obtained from the non-PC-PLC controls.

In data set [5] the target is T2, phosphatidylcholine-specific phospholipase C (PC-PLC) (Bacillus cereus, UniProt P09598).
T2 construct: purchased Invitrogen
T2 sequence (P09598 39-283 limits assumed): as above
The data set can be described thus: Amplex Red phosphatidylcholine-specific phospholipase C (PC-PLC) inhibition assay. The format is biochemical, B. cereus. The settings on record: 30 min at 37° C., triplicate. The protocol:
as §4, §5, §6
The test compound (25 μL) at a serious of concentrations was pipetted into a 96 well plate. For uninhibited PC-PLC controls and non-PC-PLC controls, 25 μL of water was added. After the addition of 50 μL of the Amplex Red/HRP/lecithin working solution, the reaction was initiated by adding 25 μL of PC-PLC solution to each well. To the non-PC-PLC controls, 25 μL of water was added instead of PC-PLC solution. The experiment was performed in triplicate. The reactions were protected from light. After incubated for 30 min at 37° C., the reactions were measured with a fluorescence microplate reader using excitation at 550 nm and emission detection at 590 nm. The fluorescent data obtained were corrected for background fluorescence by subtracting the values obtained from the non-PC-PLC controls.

In data set [6] the test system is Herpes simplex virus type-2 (HSV-2). The data set can be described thus: Inhibition of HSV-2 (plaque assay; Calu-6 infected, RITA cells for plaques). The format is cell-based. The protocol:
as §2
(§7) For HSV-2 inhibition, Calu-6 cells were seeded in 96 well plates at a density of 3×10^6 cells per plate in the DMEM cell culture medium. The plates were incubated at 37° C. in the presence of 5% CO2 for 24 hr. The DMEM cell culture medium in the plates was removed and the cells were infected with Herpes simplex virus type-2 at 50 plaque forming units per well. After incubation at 37° C. for 60 min, test compounds in DMEM cell culture medium at a series of concentrations were added. The plates were incubated at 37° C. in the presence of 5% CO2 for 48 hr. The plates were frozen at −20° C. prior to further analysis. After thawing at room temperature, supernatants containing infectious virus particles were prepared by centrifuging the supernatant from each well at 18,000 g at 4° C. for 5 min. The supernatant was further diluted before assay.
RITA cells were seeded in 24 well Linbra plates at a density of 4×10^6 cells per plate in 2 mL of DMEM cell culture medium. The plates were incubated at 37° C. in the presence of 5% CO2 for 24 hr. After the removal of the cell culture medium, 0.1 mL of the diluted supernatants was added and the plates were incubated at 37 C for 1 hr. DMEM cell medium containing 10% fetal calf serum and 0.5% methyl cellulose was added and the plates were incubated at 37 for 48 hr. The plates were then washed with PBS, fixed with 3% formaldehyde solution containing 0.9% NaCl for 1 min, washed by water for 10 sec, and dried overnight. For detection, the plates were then stained with crystal violet solution for 5 min at room temperature, washed 5 times with water, and dried at room temperature overnight. The number of plaques was determined macroscopically. The number of plaques per well was then multiplied with the dilution factor. Dose response curves were obtained by plotting the number of plaques/0.1 mL against compound concentration. The therapeutic index was also calculated for each compound by dividing LD50 with IC50.

The test system of data set [7] is bovine papilloma virus type I (BPV-1)-transformed HEF (HEF-BPV). Nature of the data set: BPV-infected hamster embryo fibroblasts (HEF) cell proliferation assay. The settings on record: 72 hr incubation. Format: cell-based. The protocol: as §1
The subject of data set [8] is herpes simplex virus type 2. The data set can be described thus: HSV-2 inhibition in Calu-6 cells, plaque titration on RITA cells. The settings on record: Human alphaherpesvirus 2, Calu-6; 48 hr, 50 plaque forming units per well. Format: cell-based. The method, then:
as §2, §7
RITA cells were seeded in 24 well Linbra plates at a density of 4×10^6 cells per plate in 2 mL of DMEM cell culture medium. The plates were incubated at 37° C. in the presence of 5% CO2 for 24 hr. […] The number of plaques was determined macroscopically. […] The therapeutic index was also calculated for each compound by dividing LD50 with IC50.

For the molecule `S=C(S)OC1CC2CC1C1CCCC21` (stereo not drawn) [Compound D609, tricyclodecan-9-yl-xanthogenate], the “inhibition of phosphatidylcholine-specific phospholipase C” value in data set [1] is on record as “specific inhibitor”. For the same molecule, the IC50 was 21.6 ± 1.85 µg/mL (≈ 94.8 µM) in data set [2]; 89.7 µM in [4]; 20.49 ± 1.99 µg/mL in data set [5]; 30.2 ± 6.77 µg/mL (≈ 132 µM) in data set [6] (Human alphaherpesvirus 2, Calu-6 cells, 48 hr, 50 plaque forming units per well, read-out: IC50). The LD50 with Calu-6 cells was 105.18 ± 21.97 µg/mL. In data set [3], the CC50 at 48 h stood at 105 ± 22 µg/mL (≈ 461 µM). Also, in data set [6] (LD50 (Calu-6) divided by IC50 (HSV-2), 2880 min), the “Therapeutic Index” value amounted to 3.5.
For `S=C(S)O[C@@H]1C[C@@H]2C[C@H]1[C@H]1CCC[C@@H]21` (racemic) [Racemic 1A, racemic O-exo/C-exo xanthic acid 1A, reference compound], the IC50 was 14.55 ± 0.07 µg/mL (≈ 63.7 µM) in data set [7], 17.2 ± 5.95 µg/mL (≈ 75.2 µM) in data set [8] and 44 µM in data set [5] (read-out: IC50 (converted)). In the data set with Calu-6 cells, this molecule gave an LD50 of 96.93 ± 7.12 µg/mL.
